Where two headings read alike, the source gives them in different places.

Consider three compounds from US11773087B2, “GLP-1R receptor agonist compound and use thereof” (SUZHOU VINCENTAGE PHARMA CO., LTD, priority 2020, dated 2023).

One series deals with T1, human GLP-1R receptor (Homo sapiens, UniProt P43220).
T1 construct: expressed in transfected cells; host or cells: 'GLP-1R cells' (frozen vial)
Put plainly: GLP-1R cAMP assay (HTRF, HEK293 cells expressing GLP-1R). In kind it is cell-based. Particulars: agonistic activity, GLP-1R HEK293 cells. Here is the method:
Test Embodiment 1: Activity Test of GLP-1R cAMP Assay
This experiment aims to verify the agonistic activity of the compound of the present disclosure on human GLP-1R receptor.
Compounds were diluted 4-fold starting at 100 μM from DMSO using Bravo for a total of 10 points.
The reference compound polypeptide GLP-1 (7-37) was diluted 4-fold starting from 500 nM in DMSO using Bravo for a total of 10 points.
b) Preparation of Cell Suspension: • 1) 1 vial of GLP-1R cells was quickly thawed in a 37° C. water bath. • 2) The suspension of the cells was transferred to 10 mL of HBSS in a 15 mL conical tube. • 3) The cells were centrifuged at 1000 rpm for 5 min at room temperature to precipitate the cells. • 4) The supernatant was gently aspirated, and being careful not to aspirate the cells. • 5) The cells were relaxed by flicking the precipitation, and then the cell precipitation was re-suspended in 10 mL of HBSS. A sterile pipette was used to move fluid up and down to remove clumps. • 6) The concentration of cells was counted and the cell viability on Vi-cell was determined. • 7) GLP-1R cells were re-suspended in the test buffer at a concentration of 2.0×E5/mL cells. • 8) 10 μL of GLP-1R cell was transferred to OptiPlate-384 well plate.
c) Transfer of Compound: • 1) 100 nL of compound was transferred to OptiPlate-384 plate using Echo Transfer. • 2) The plate was rotated at 1000 rpm for 5 seconds.
d) HTRF cAMP Analysis of Agonists: • 1) The plate was incubated at room temperature for 30 minutes before adding detection reagents. • 2) An electric multi-channel pipette was used to add 10 μL of detection reagents respectively. • 3) The 384 well plate was covered with TopSeal-A membrane and incubated for 60 min at room temperature.
TopSeal-A was unloaded and read on EnVision.

The nature of series [1]: Pharmacokinetic evaluation of cynomolgus monkey (IV and oral). The class given is in vivo, cynomolgus monkeys. To be noted: for F: 50 mg/kg PO vs 1 mg/kg IV, oral bioavailability; for Cmax / Tmax / clearance / half-life / AUC(0-t) / concentration at 24 h: male, plasma; for AUC(0-t): read-out: AUC0-24 h; for concentration at 24 h: read-out: C24 h. Here is the method: Test Embodiment 3: Pharmacokinetic Evaluation of Cynomolgus Monkey
The drug concentrations in the plasma of cynomolgus monkeys were tested at different times after intravenous injection and oral administration of the compounds using cynomolgus monkeys as test animals. The pharmacokinetic behavior of the compounds of the present disclosure in cynomolgus monkeys was studied and their pharmacokinetic characteristics were evaluated. In each group of embodiments, 2 cynomolgus monkeys with similar body weight were selected, administered at a dose of 1 mg/kg by intravenous injection and at a dose of 50 mg/kg by oral administration for a single administration.
Age of cynomolgus monkeys at the time of administration: about 2-4 years old; body weight: 3.0-4.6 kg at the beginning of administration; 4 monkeys; sex: male.
Intravenous group: The final concentration of 0.5 mg/mL was prepared for intravenous administration, and the preparation solvent was 5% DMSO+45% PEG400+50% water, and the preparation was in a clarified solution.
Oral group: The final concentration of 10 mg/mL was prepared for oral administration, and the preparation solvent was 5% DMSO+45% PEG400+50% water, and the preparation was in homogeneous suspension.
(§1) Blood was collected from animals at 5 min, 15 min, 30 min, 1 h, 2 h, 4 h, 7 h, 12 h, 24 h time points after administration. The LC-MS/MS analysis method was used to detect the content of the compound in plasma, and the lower limit of quantification of the method was 20 ng/mL. Concentration data in plasma was counted using the metabolic kinetic data analysis software WinNonlin 7.0, and the pharmacokinetic parameters were calculated using the non-compartmental analysis (NCA), as shown in Table 3 below.
Determination of the content of test compounds in the plasma of cynomolgus monkeys after drug administration: After blood samples were collected, placed in a marked ice-bath centrifuge tube, and rapidly centrifuged to separate the plasma. Centrifugation conditions: 4000 rpm, 10 minutes, 4° C., and plasma was stored at −40° C. or less for testing.

Series [2] can be described thus: Pharmacokinetic evaluation in rats (gavage). To be noted: rat, 10 mg/kg single oral gavage, plasma. The class given is in vivo. The method, then:
Test Embodiment 2: Pharmacokinetic Evaluation in Rats
as §1, with “The drug concentrations in the plasma of rats were tested at different times after the administration of the compounds by gavage using rats as test animals. The pharmacokinetic behavior of the compounds of the present disclosure in rats was studied and their pharmacokinetic characteristics were evaluated. In each group of embodiments, 3 rats with similar body weight were selected and administered orally at a dose of 10 mg/kg for a single administration. Blood” for “Blood”, “at” for “at 5 min,”, “h, 6 h, 8” for “h, 7”, “Table 2” for “Table 3”
Drug configuration: A certain amount of drug was taken, added with 2% Klucel LF+0.1% Tween 80 aqueous solution to prepare a clear solution or a uniform suspension.
Administration: Rats were administered by gavage after overnight fasting at a dose of 10 mg/kg.
Operation: Rats were administered by gavage, and blood was collected from the tail vein before administration and 15 min, 30 min, 1 h, 2 h, 4 h, 6 h, 8 h, 12 h, 24 h after administration, placed in heparinized sample tubes, centrifuged at 4° C., 3500 rpm for 10 min to separate plasma, stored at −20° C., and fed 2 hours after administration.
Determination of the content of test compounds in rat plasma after drug administration by gavage: 50 μL of plasma samples were thawed at room temperature, added with 130 μL of internal standard working solution (1000 ng/mL, acetonitrile, tolbutamide), vortexed for about 1 min and then centrifuged for 10 min at 4° C. and 13000 rpm. 50 μL of supernatant was mixed with 100 μL of 50% acetonitrile in water, and then the sample was injected for LC/MS/MS analysis.

The conditions of series [3]: obese patients, cited from earlier work.

T1 sequence (P43220 24-463): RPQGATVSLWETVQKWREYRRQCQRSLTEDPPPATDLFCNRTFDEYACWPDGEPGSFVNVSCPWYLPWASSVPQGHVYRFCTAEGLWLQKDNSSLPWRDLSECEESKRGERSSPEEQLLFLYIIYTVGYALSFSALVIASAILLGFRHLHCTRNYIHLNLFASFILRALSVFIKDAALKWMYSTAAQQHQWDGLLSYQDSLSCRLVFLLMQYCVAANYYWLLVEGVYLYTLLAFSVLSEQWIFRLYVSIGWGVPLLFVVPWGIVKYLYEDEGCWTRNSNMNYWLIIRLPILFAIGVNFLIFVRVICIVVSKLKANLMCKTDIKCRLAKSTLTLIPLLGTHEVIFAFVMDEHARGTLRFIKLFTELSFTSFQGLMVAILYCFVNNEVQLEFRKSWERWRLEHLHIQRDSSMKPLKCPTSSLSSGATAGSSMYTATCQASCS

In turn, `O=C(O)c1ccc2nc(CN3CCC(c4ccccc4OCc4ccc(Cl)cc4F)CC3)n(C[C@@H]3CCO3)c2c1` [Compound 3] showed an EC50 at human GLP-1R receptor of 0.9 nM. This compound displayed a F in series [1] of 51.2%. Further, in series [1] (1 mg/kg IV), the Cmax was 1590 ng/mL, the Tmax stood at 4.98 min, the clearance was 19.2 mL/min/kg and the half-life is 58.8 min. The AUC(0-t) in series [1] (1 mg/kg IV) came out at 898 ng·h/mL. Besides, in series [1] (50 mg/kg PO), the Cmax came out at 2440 ng/mL, the Tmax worked out at 150 min, the half-life was 1360 min and the concentration at 24 h was found to be 597 ng/mL. Moreover, in series [1] (50 mg/kg PO), the AUC(0-t) stood at 23000 ng·h/mL. In addition, in series [2], the AUC(0-inf) was determined as 1030 ng·h/mL, the highest level (Cmax) was 1160 ng/mL, the Tmax came out at 15 min and the half-life was 155 min.

`N#Cc1ccc(COc2cccc(C3CCN(Cc4nc5ccc(C(=O)O)cc5n4C[C@@H]4CCO4)CC3)n2)c(F)c1` [PF-06882961, reference compound] displayed a F in series [1] of 8.0%. Further, in series [1] (1 mg/kg IV), the peak level (Cmax) was 2220 ng/mL, the Tmax turned out to be 4.98 min, the clearance was 15.9 mL/min/kg and the half-life is 68.4 min. Moreover, the AUC(0-t) in series [1] (1 mg/kg IV) was 1070 ng·h/mL. For the same compound, in series [1] (50 mg/kg PO), the peak level (Cmax) was 2050 ng/mL, the Tmax worked out at 105 min, the half-life was 654 min and the concentration at 24 h came to 41.4 ng/mL. Also, the AUC(0-t) in series [1] (50 mg/kg PO) worked out at 4330 ng·h/mL. For the same compound, in series [2], the AUC(0-inf) was 179 ng·h/mL, the peak level (Cmax) was 55 ng/mL, the Tmax turned out to be 25.2 min and the half-life is 413 min.

Consider semaglutide, for which the “patients with ≥5% weight loss” value in series [3] (2.4 mg group, 68 weeks) is given as 86.4%. In series [3] (2.4 mg, 68 weeks of treatment, baseline 105.3 kg), the “decrease of mean baseline body weight” value was 14.9%.
